{"source": "patent US20240188566A1", "about": "“Biocidal Composition and Method” (ARXADA, LLC, priority 2021, published 2024)", "key": {"[1]": {"tested_on": "Pseudomonas aeruginosa, Escherichia coli, Enterobacter cloacae, Acinetobacter calcoaceticus", "assay": "In-can challenge test, modified ASTM D2574-97 (Table 1)", "format": "cell-based", "description": "(§1) Various formulations were made in accordance with the present disclosure and tested for performance. In one challenge test, the efficacy of dicyandiamide as an adjuvant for BIT was evaluated using modified ASTM D2574-97 “Standard Test Method for Resistance of Emulsion Paints in the Container to Attack by Microorganisms” with higher inoculation volumes and frequency. A standard consortium of four (4) bacterial populations: Pseudomonas aeruginosa, Escherichia coli, Enterobacter cloacae, Acinetobacter calcoaceticus was used to inoculate three (3) different samples at ten percent (10%), five percent (5%), or two and a half percent (2.5%) of the sample size. At twenty-four (24) hours and seventy-two (72) hours after each inoculation, a portion of each sample was streaked on tryptic soy agar. A dilution plate count was performed at the last seventy-two (72) hour time point.\n(§2) Example data provided in Tables 1, 2 and 3 should be understood as indicating the degree of microbial growth observed for a given data point unless otherwise indicated. In particular, each plate is ranked from 0 through 5c (i.e., one of 0, 1, 2, 3, 4, 5, or 5c) according to the degree of observed microbial growth, where: a “0” ranking indicates no growth; a “1” ranking indicates one (1) through five (5) observed colony forming unit (cfu), i.e., the plate was very lightly contaminated; a “2” ranking indicates six (6) through fifteen (15) cfu, i.e., the plate was lightly contaminated; a “3” ranking indicates sixteen (16) through thirty (30) cfu, i.e., the plate was moderately contaminated; a “4” ranking indicates thirty-one (31) through forty-five (45) cfu, i.e., the plate was heavily contaminated; a “5” ranking indicates greater than (45) cfu, i.e., the plate was severely contaminated; and a “5c” ranking indicates confluent growth, i.e., the plate was very severely contaminated. Thus, for instance, Table 1, Challenge 1 at 24 h for BIT 50 ppm has a value of 5 indicating greater than forty-five (45) cfu were observed. As another example for illustration, Table 1, Challenge 1 at 24 h for dicyandiamide 5,000 ppm+BIT 50 ppm has a value of 1 indicating one (1) through five (5) cfu was observed."}, "[2]": {"tested_on": "Pseudomonas aeruginosa, Escherichia coli, Enterobacter cloacae, Acinetobacter calcoaceticus", "assay": "Repeat in-can challenge test, same conditions (Table 2)", "format": "cell-based", "description": "as §1, §2"}, "[3]": {"tested_on": "bacteria, fungi, and yeast", "details": "background statement; cited from earlier work"}, "[4]": {"details": "neutral pH; cited from earlier work"}, "[5]": {"details": "BIT 50 ppm, Challenge 1 (10%), 24 h"}, "[6]": {"details": "BIT 50 ppm, Challenge 1 (10%), 72 h"}, "[7]": {"details": "BIT 50 ppm, Challenge 2 (5%), 72 h"}, "[8]": {"details": "BIT 50 ppm, Challenge 3 (2.5%), 24 h"}, "[9]": {"details": "BIT 50 ppm, Challenge 3 (2.5%), 72 h"}, "[10]": {"details": "BIT 100 ppm, Challenge 1 (10%), 24 h"}, "[11]": {"details": "BIT 100 ppm, Challenge 1 (10%), 72 h"}, "[12]": {"details": "BIT 100 ppm, Challenge 2 (5%), 72 h"}, "[13]": {"details": "BIT 100 ppm, Challenge 3 (2.5%), 24 h"}, "[14]": {"details": "BIT 100 ppm, Challenge 3 (2.5%), 72 h"}}, "data": [{"molecule": "O=c1[nH]sc2ccccc12", "note": "[BIT, 1,2-benzisothiazolin-3-one]", "values": [{"measurement": "degree of microbial growth (plate ranking)", "setting": "[1]; [5]", "value": "5 (a “5” ranking indicates greater than (45) cfu, i.e., the plate was severely contaminated)"}, {"measurement": "degree of microbial growth (plate ranking)", "setting": "[1]; [6]", "value": "2 (a “2” ranking indicates six (6) through fifteen (15) cfu, i.e., the plate was lightly contaminated)"}, {"measurement": "degree of microbial growth (plate ranking)", "setting": "[1]; [7]", "value": "5 (a “5” ranking indicates greater than (45) cfu, i.e., the plate was severely contaminated)"}, {"measurement": "degree of microbial growth (plate ranking)", "setting": "[1]; [8]", "value": 5, "unit": "c"}, {"measurement": "dilution plate count", "setting": "[1]; [9]", "value": "7.8 × 10^6"}, {"measurement": "degree of microbial growth (plate ranking)", "setting": "[1]; [10]", "value": "5 (a “5” ranking indicates greater than (45) cfu, i.e., the plate was severely contaminated)"}, {"measurement": "degree of microbial growth (plate ranking)", "setting": "[1]; [11]", "value": 0}, {"measurement": "degree of microbial growth (plate ranking)", "setting": "[1]; [12]", "value": 0}, {"measurement": "degree of microbial growth (plate ranking)", "setting": "[1]; [13]", "value": "5 (a “5” ranking indicates greater than (45) cfu, i.e., the plate was severely contaminated)"}, {"measurement": "dilution plate count", "setting": "[1]; [14]", "value": "5.0 × 10^1"}, {"measurement": "degree of microbial growth (plate ranking)", "setting": "[2]; BIT 35 ppm, Challenge 1 (10%), 24 h", "value": 5, "unit": "c"}, {"measurement": "degree of microbial growth (plate ranking)", "setting": "[2]; BIT 35 ppm, Challenge 1 (10%), 72 h", "value": 5, "unit": "c"}, {"measurement": "degree of microbial growth (plate ranking)", "setting": "[2]; BIT 35 ppm, Challenge 2 (5%), 72 h", "value": 5, "unit": "c"}, {"measurement": "degree of microbial growth (plate ranking)", "setting": "[2]; BIT 35 ppm, Challenge 3 (2.5%), 24 h", "value": 5, "unit": "c"}, {"measurement": "dilution plate count", "setting": "[2]; BIT 35 ppm, Challenge 3 (2.5%), 72 h", "value": "3.0 × 10^6"}, {"measurement": "degree of microbial growth (plate ranking)", "setting": "[2]; [5]", "value": 5, "unit": "c"}, {"measurement": "degree of microbial growth (plate ranking)", "setting": "[2]; [6]", "value": 5, "unit": "c"}, {"measurement": "degree of microbial growth (plate ranking)", "setting": "[2]; [7]", "value": 5, "unit": "c"}, {"measurement": "degree of microbial growth (plate ranking)", "setting": "[2]; [8]", "value": 5, "unit": "c"}, {"measurement": "dilution plate count", "setting": "[2]; [9]", "value": "6.6 × 10^6"}, {"measurement": "degree of microbial growth (plate ranking)", "setting": "[2]; BIT 65 ppm, Challenge 1 (10%), 24 h", "value": 5, "unit": "c"}, {"measurement": "degree of microbial growth (plate ranking)", "setting": "[2]; BIT 65 ppm, Challenge 1 (10%), 72 h", "value": "3 (a “3” ranking indicates sixteen (16) through thirty (30) cfu, i.e., the plate was moderately contaminated)"}, {"measurement": "degree of microbial growth (plate ranking)", "setting": "[2]; BIT 65 ppm, Challenge 2 (5%), 72 h", "value": 5, "unit": "c"}, {"measurement": "degree of microbial growth (plate ranking)", "setting": "[2]; BIT 65 ppm, Challenge 3 (2.5%), 24 h", "value": 5, "unit": "c"}, {"measurement": "dilution plate count", "setting": "[2]; BIT 65 ppm, Challenge 3 (2.5%), 72 h", "value": "1.0 × 10^6"}, {"measurement": "degree of microbial growth (plate ranking)", "setting": "[2]; BIT 75 ppm, Challenge 1 (10%), 24 h", "value": 5, "unit": "c"}, {"measurement": "degree of microbial growth (plate ranking)", "setting": "[2]; BIT 75 ppm, Challenge 1 (10%), 72 h", "value": 0}, {"measurement": "degree of microbial growth (plate ranking)", "setting": "[2]; BIT 75 ppm, Challenge 2 (5%), 72 h", "value": "5 (a “5” ranking indicates greater than (45) cfu, i.e., the plate was severely contaminated)"}, {"measurement": "degree of microbial growth (plate ranking)", "setting": "[2]; BIT 75 ppm, Challenge 3 (2.5%), 24 h", "value": 5, "unit": "c"}, {"measurement": "dilution plate count", "setting": "[2]; BIT 75 ppm, Challenge 3 (2.5%), 72 h", "value": "2.8 × 10^5"}, {"measurement": "degree of microbial growth (plate ranking)", "setting": "[2]; [10]", "value": 5, "unit": "c"}, {"measurement": "degree of microbial growth (plate ranking)", "setting": "[2]; [11]", "value": 0}, {"measurement": "degree of microbial growth (plate ranking)", "setting": "[2]; [12]", "value": "5 (a “5” ranking indicates greater than (45) cfu, i.e., the plate was severely contaminated)"}, {"measurement": "degree of microbial growth (plate ranking)", "setting": "[2]; [13]", "value": 5, "unit": "c"}, {"measurement": "dilution plate count", "setting": "[2]; [14]", "value": "1.8 × 10^7"}, {"measurement": "amount required for a reliable and quick biocidal activity", "setting": "[3]", "value": "≤ 500", "unit": "ppm"}]}, {"molecule": "Zinc pyrithione [ZPT]", "values": [{"measurement": "solubility in water", "setting": "[4]", "value": 8, "unit": "ppm"}]}]}
